As usually defined, the IC50 is the point on the concentration scale where inhibition reaches its midpoint.

The values below come from patent publication US5010097A, “Novel compounds” (Beecham Pharmaceuticals, priority 1987, dated 1991).

The target in the test is T1, human collagenase (human lung fibroblast cell line WI-38) (Homo sapiens, UniProt P03956).
T1 construct: purified from culture supernatants from the human lung fibroblast cell line, WI-38; endogenous in cells; host or cells: WI-38 human lung fibroblasts (enzyme purified from culture supernatants)
T1 sequence (P03956 100-469): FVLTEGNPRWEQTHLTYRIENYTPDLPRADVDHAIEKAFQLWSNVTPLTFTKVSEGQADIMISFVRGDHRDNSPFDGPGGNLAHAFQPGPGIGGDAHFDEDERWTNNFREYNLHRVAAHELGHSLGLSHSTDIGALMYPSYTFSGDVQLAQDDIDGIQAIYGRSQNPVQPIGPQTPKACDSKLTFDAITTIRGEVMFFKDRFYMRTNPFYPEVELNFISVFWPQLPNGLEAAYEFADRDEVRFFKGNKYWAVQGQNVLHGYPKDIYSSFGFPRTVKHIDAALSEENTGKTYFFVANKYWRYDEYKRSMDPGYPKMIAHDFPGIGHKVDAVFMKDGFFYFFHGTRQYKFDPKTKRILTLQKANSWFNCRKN
Put plainly: Inhibition of Human Lung Fibroblast Collagenase (collagenase inhibitor assay, 14C-acetylated rat skin Type I collagen substrate). The class given is biochemical. Here is the method:
The test is performed essentially as in Cawston and Barrett Anal. Biochem. 99, 340-345 (1979). Compounds for testing are dissolved in methanol and added to purified human collagenase purified from culture supernatants from the human lung fibroblast cell line, WI-38, diluted in a suitable aqueous buffer. After a 5 min pre-incubation at 37° C., the assay tubes are cooled to 4° and ^14 C-acetylated rat skin Type I collagen is added. The assay tubes are incubated at 37° C. overnight. The ^14 C-collagen forms insoluble fibrils which are the substrate for the enzyme.
To terminate the assay, the assay tubes are spun at 12000 rpm for 25 min. Undigested ^14 C-collagen remains as insoluble fibrils and is pelleted, while digested ^14 C-collagen remains as soluble peptides in the supernatant. A sample of the supernatant is taken for liquid scintillation counting.
The activity of collagenase inhibitors (IC50 : 50% inhibitory concentration) is expressed as the concentration of compound that inhibits a known (standard) concentration of enzyme by 50%, or as the % inhibition of the collagen degradation caused by the known (standard) concentration of enzyme, at a stated concentration of the compound.

Turning to `CNC(=O)[C@H](Cc1ccc(OC)cc1)NC(=O)C(CC(C)C)C(S)CC(C)=O` (single isomer, unassigned) [2 A], it took 14 nM to reach half-maximal inhibition (purified human collagenase from WI-38 culture supernatants, 14C-collagen fibrils, 5 min pre-incubation at 37 °C, then 37 °C overnight) (IC50). For the compound `CNC(=O)[C@H](Cc1ccc(OC)cc1)NC(=O)C(CC(C)C)C(S)CC(C)=O` (some centres unmarked) [2 C/D], where the note is “at 1000 (column head nm), purified human collagenase from WI-38, 37 °C overnight”, the “Inhibition (% inhibition of the collagen degradation)” value was determined as 58%.
